One series addresses 5HT1b. The arrangement: method as in ref 10 (Additional file 1). The settings on record: literature value; ref 10 (Additional file 1); cited from earlier work.
The next series has as its system GABA. The settings on record: non-functioning tracer: corresponds to arbitrarily assigned low ftb 0.09, not from PET data; blank in Table S1.
Another series concerns the target KOR. The arrangement: method as in ref 35 (Additional file 1). The settings on record: literature value; ref 35 (Additional file 1); cited from earlier work.
On the set-up of series [1]: method as in ref 10 (a number printed in a supplementary file, which may have a reference list of its own: not looked up in the article's list). The settings on record: unbound fraction in homogenized brain tissue, reported; cited from earlier work.
Series [2] can be described thus: Unbound fraction in brain homogenate (fu,brain); Vu,brain calculated from it with pH-partition model. The settings on record: calculated from reported fu,brain and tracer pKa with pH-partition model (tracers with fu,brain tabulated, footnote h of Table S1).
Description: The unbound volume of distribution in the brain (Vu,brain) describing the extent of non-specific partitioning was determined for 31 tracers using a previously described high-throughput brain slice method [11].
Another series deals with NK1. The arrangement: method as in ref 36 (Additional file 1). The settings on record: literature value; ref 36 (Additional file 1); cited from earlier work.
The target in a further series is H3. The arrangement: method as in ref 38 (Additional file 1). The settings on record: literature value; ref 38 (Additional file 1); cited from earlier work.
Another series deals with CB1r. The arrangement: method as in ref 48 (Additional file 1). The settings on record: literature value; ref 48 (Additional file 1); cited from earlier work.
The target in series [3] is Sigma. The arrangement: method as in ref 77 (Additional file 1). The settings on record: literature value; ref 77 (Additional file 1); cited from earlier work.
For series [4], the system named is Sigma. As to the kind of experiment: PET imaging of specific target binding (BPND, tracer functionality). The class given is in vivo. The settings on record: non-functioning tracer: corresponds to arbitrarily assigned low ftb 0.09, not from PET data; blank in Table S1.
A further series addresses D1. The arrangement: method as in ref 52, 53 (Additional file 1). The settings on record: literature value; 53 (Additional file 1); cited from earlier work.
For another series, the target named is D2/D3. The arrangement: method as in ref 59 (Additional file 1). The settings on record: literature value; ref 59 (Additional file 1); cited from earlier work.
For another series, the target named is nAChr a4b2. The arrangement: method as in ref 2 (Additional file 1). The settings on record: literature value; ref 2 (Additional file 1); cited from earlier work.
For the next series, the target named is 5HT2a. The arrangement: method as in ref 7 (Additional file 1). The settings on record: literature value; ref 7 (Additional file 1); cited from earlier work.
In the next series the target is 5HT1a. The arrangement: method as in ref 50 (Additional file 1). The settings on record: literature value; ref 50 (Additional file 1); cited from earlier work.

Usually Kd stands for the equilibrium constant for the complex coming apart.

For `Cc1ccc(N2CCN(C)CC2)c2oc(C(=O)Nc3ccc(N4CCOCC4)cc3)cc(=O)c12` [[^11C]AZ10419369], at 5HT1b, the equilibrium dissociation constant (Kd) was 0.37 nM.
Take `[11CH3]N1C(=O)CN=C(c2ccccc2)c2cc(Cl)ccc21` [[^11C]Diazepam]: the “BP ND” value in the series on GABA came out at 0.1.
For the compound `COC(=O)N1CCN(C(=O)Cc2ccc(Cl)c(Cl)c2)[C@H](CN2CCCC2)C1` [[^11C]GR103545], the equilibrium dissociation constant (Kd) on KOR is 0.048 nM.
As for `COc1ccc(-n2nnnc2C(F)(F)F)cc1CN[C@H]1CCCN[C@H]1c1ccccc1` [[^11C]GR205171], the “fu,brain” value in series [1] was 0.05. Further, the “V u,brain” value in series [2] is listed as 57 mL/g brain. Further, the Kd on NK1 is 0.016 nM.
Turning to `CNC(=O)c1ccc(Oc2ccc3c(c2)CCN(C2CCC2)CC3)nc1` [[^11C]GSK189254A], the equilibrium dissociation constant (Kd) on H3 is 0.08 nM.
Regarding `COc1cccc([C@H]2C[C@@H](N[C@H](C)c3ccccc3)C(=O)N2c2ccc(C(F)(F)F)cc2)c1` [[^11C]MePPEP], the Kd on CB1r was 0.1 nM.
`CCCN(CCC)CCc1ccc(OC)c(OCCc2ccccc2)c1` [[^11C]NE100]: the Kd at Sigma [3] is 1.2 nM.
Turning to `CCCN(CCC)CCc1ccc(O[11CH3])c(OCCc2ccccc2)c1` [[^11C]NE100], the “BP ND” value with Sigma [4] is 0.1. In series [1], the “fu,brain” value is listed as 0.03. For the same compound, the “V u,brain” value in series [2] is 96 mL/g brain.
For `CN1CCc2cc(Cl)c(O)cc2[C@@H](c2cccc3ccoc23)C1` [[^11C]NNC112], the Kd at D1 was 0.18 nM.
As to `CCCN1CCO[C@@H]2c3cc(O)ccc3CCC21` (some centres unmarked) [[^11C]PHNO], the dissociation constant Kd at D2/D3 was 0.56 nM.
For `Fc1ncccc1OC[C@@H]1CCN1` [[^18 F]2-FA-85380], the Kd on nAChr a4b2 was 0.145 nM.
As for `O=C(c1ccc(F)cc1)C1CCN(CCn2c(=S)[nH]c3ccccc3c2=O)CC1` [[^18 F]Altanserin], at 5HT2a, the dissociation constant (Kd) was 0.32 nM.
With `COc1ccccc1N1CCN(CCN(C(=O)c2ccc(F)cc2)c2ccccn2)CC1` [[^18 F]MPPF], on 5HT1a, the equilibrium dissociation constant (Kd) is 3.3 nM.
